Laboratory results as given in patent publication US5322841A, “Method for producing neutral glucans for pharmaceutical applications” (Alpha-Beta Technology, Inc., priority 1992, dated 1994).

What was measured:
[1] = system: β-glucan receptor of monocytes; test: Inhibition of Zymosan ingestion by human monocytes (affinity for the monocyte β-glucan receptor); format: cell-based
Protocol: Human monocytes were incubated with various concentrations of the PGG for 15 minutes, washed to remove unbound glucan and then incubated with Zymosan for 30 minutes. After fixing and staining the monolayers, the percentage of monocytes ingesting Zymosan was determined. The affinity of glucan preparations for the β-glucan receptor by was measured according to their ability to competitively occupy the receptor thus inhibiting the uptake of Zymosan by monocytes. Samples were compared by taking the concentration of glucan required to obtain 50% inhibition of Zymosan ingestion.
Two molecular weight fractions of PGG from Saccharomyces cerevisiae R4 were prepared according to the procedure outlined in Example 2. The PGG preparations were then assayed for their affinity to the monocyte β-glucan receptor by measuring inhibition of Zymosan phagocytosis as described in Example 3.

[2] = biological target: β-glucan receptor of monocytes; settings: Table 1; value from Czop and Austen, J. Immunology 135(5):3388-3393 (1985); cited from earlier work
E. coli strain TVDL-rat = test: E. coli sepsis model in mice; format: in vivo
Protocol: A sepsis model was developed in mice to characterize the efficacy of modified PGG glucans in protecting an immunologically intact host against serious infections, such as those which commonly occur following abdominal surgery. PGG derived from WGP-R4 was prepared according to the procedure outlined in Example 2.
The model used intraperitoneal challenge of mice with an 0.1 ml suspension of E. coli strain TVDL-rat (approximately 10^8 CFU/ml) 24 hours following IV administration of PGG by single bolus injection using transthoracic cardiac puncture. Mice were returned to their cages and maintained on food and water ad libitum. A control group of 10 mice were injected with 0.1 ml sterile saline at the time of the PGG administration. Mortality rates for the treatment groups and saline control group were recorded at 48 hours after challenge.

[3] = system: peripheral white blood cell (WBC) counts; test: Peripheral total and differential white blood cell counts in mice after IV or SC PGG; format: in vivo, male CD-1 mice
Protocol: The effect of in vivo administration of modified glucans on peripheral white blood cell (WBC) counts was characterized in mice. PGG preparations of the modified glucan from strain R4 were prepared according to the procedure outlined in Example 2 and administered intravenously (IV) and subcutaneously (SC) to male CD-1 mice. Total and differential cell counts were monitored at regular time intervals.

[4] = most pronounced increase, FIGS. 2 and 3, mice
[5] = multiple-dose SC regimen, 5 mg/mouse/day×4 days, after initiation of therapy

Substance	Relative Avidity ([1]; Table 1, relative to Barley β-Glucan = 1)	Concentration for 50% Inhibition [2] [µg/mL]	lowest dose significantly reducing mortality (E. coli strain TVDL-rat; single IV bolus 24 hours before E. coli challenge, equals 0.5 mg/kg body weight) [mg/mouse]	mortality at 48 hours after challenge compared to saline control group (E. coli strain TVDL-rat; single IV bolus 24 hours before intraperitoneal E. coli challenge, p<0.05, doses as low as 0.01 mg/mouse (0.5 mg/kg body weight))	concentration of glucan required to obtain 50% inhibition of Zymosan ingestion ([1]; human monocytes incubated with glucan 15 minutes, then Zymosan 30 minutes, FIG. 1) [µg/mL]	increase in activity (affinity for monocyte β-glucan receptor) versus YE glucan ([1]; ratio of concentrations for 50% inhibition of Zymosan ingestion) [fold]	time to amplification of total WBC counts ([3]; FIGS. 2 and 3, mice) [h]	increase in granulocyte count [3, 4] [×]	increase in monocyte count [3, 4] [×]	increase in average monocyte count, zero hours to 144 hours ([3]; multiple-dose SC regimen) [fold]	time at which increase in total WBC begins [3, 5] [h]	time at which increase in total WBC peaks [3, 5] [h]	average monocyte count ([3]; multiple-dose SC regimen, at 144 hours (320/mm^3 at zero hours))	total WBC count ([3]; single-dose IV administration, 5 mg/mouse)
Barley β-Glucan [reference compound]	1	65												
poly-(1-6)-β-D-glucopyranosyl-(1-3)-β-D-glucopyranose [PGG]			0.01	significantly reduced mortality	0.1	35	< 6	6	12	24	48	144	approximately 8,000 /mm^3	profound increase
